Data published in US7858640B2, “Quinolines and their therapeutic use” (Pulmagen Therapeutics (Asthma) Limited, priority 2005, dated 2010).

What follows are molecules tested against T1, CRTH2 receptor (Homo sapiens, UniProt Q9Y5Y4) (assay: Radioligand binding assay ([3H]-PGD2 displacement, SPA)). Conditions: HEK cell membranes expressing the CRTH2 receptor, 1 nM [3H]-PGD2; Ki from IC50 by Cheng-Prusoff.
T1 sequence (Q9Y5Y4 1-395): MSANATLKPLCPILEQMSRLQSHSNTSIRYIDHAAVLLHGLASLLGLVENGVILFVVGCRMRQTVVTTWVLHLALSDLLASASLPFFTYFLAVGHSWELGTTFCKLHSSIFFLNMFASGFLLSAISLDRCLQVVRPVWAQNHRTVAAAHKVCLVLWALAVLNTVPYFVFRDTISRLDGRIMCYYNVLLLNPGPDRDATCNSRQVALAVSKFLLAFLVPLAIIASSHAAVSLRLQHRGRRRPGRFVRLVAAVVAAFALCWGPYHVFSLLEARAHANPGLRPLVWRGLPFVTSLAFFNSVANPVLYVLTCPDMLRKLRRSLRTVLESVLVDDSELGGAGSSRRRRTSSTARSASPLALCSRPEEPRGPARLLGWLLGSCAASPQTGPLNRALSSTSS
Parameters: expressed in transfected cells; host or cells: HEK cell membranes
Protocol: Radioligand Binding Assay
The receptor binding assay is performed in a final volume of 200 μL binding buffer [10 mM BES (pH 7.4), 1 mM EDTA, 10 mM manganese chloride, 0.01% BSA] and 1 nM [^3H]-PGD2 (Amersham Biosciences UK Ltd). Ligands are added in assay buffer containing a constant amount of DMSO (1% by volume). Total binding is determined using 1% by volume of DMSO in assay buffer and non-specific binding is determined using 10 μM of unlabeled PGD2 (Sigma). Human embryonic kidney (HEK) cell membranes (3.5 μg) expressing the CRTH2 receptor are incubated with 1.5 mg wheatgerm agglutinin SPA beads and 1 nM [^3H]-PGD2 (Amersham Biosciences UK Ltd) and the mixture incubated for 3 hours at room temperature. Bound [^3H]-PGD2 is detected using a Microbeta TRILUX liquid scintillation counter (Perkin Elmer). Compound IC50 value is determined using a 6-point dose response curve in duplicate with a semi-log compound dilution series. IC50 calculations are performed using Excel and XLfit (Microsoft), and this value is used to determine a Ki value for the test compound using the Cheng-Prusoff equation.

SMILES	Ki [nM]
CCc1nc2c(Cl)ccc(OCC(=O)O)c2c(CC)c1Cc1ccc(S(C)(=O)=O)cc1 [Example 41, [8-chloro-2,4-diethyl-3-(4-methanesulfonylbenzyl)quinolin-5-yloxy]acetic Acid]	< 100
CC(C)c1nc2c(Cl)ccc(OCC(=O)O)c2c(OC(F)F)c1Cc1ccc(S(C)(=O)=O)cc1 [Example 43, [8-chloro-4-difluoromethoxy-2-isopropyl-3-(4-methanesulfonylbenzyl)quinolin-5-yloxy]acetic Acid]	< 100
Cc1c(Cc2ccc(S(C)(=O)=O)cc2)c(C#N)nc2c(Cl)ccc(OCC(=O)O)c12 [Example 44, [8-chloro-2-cyano-3-(4-methanesulfonylbenzyl)-4-methylquinolin-5-yloxy]acetic Acid]	< 100
CCc1nc2c(F)ccc(OCC(=O)O)c2c(OC(F)F)c1Cc1ccc(S(C)(=O)=O)cc1 [Example 45, [4-difluoromethoxy-2-ethyl-8-fluoro-3-(4-methanesulfonylbenzyl)-quinolin-5-yloxy]acetic Acid]	< 100
Cc1c(Cc2ccc(S(C)(=O)=O)cc2Cl)c(OC(F)F)nc2c(F)ccc(OCC(=O)O)c12 [Example 46, [3-(2-chloro-4-methanesulfonylbenzyl)-2-difluoromethoxy-8-fluoro-4-methylquinolin-5-yloxy]acetic acid]	< 100
CCc1nc2c(F)ccc(OCC(=O)O)c2c(OC(F)F)c1Cc1ccc(S(C)(=O)=O)cc1Cl [Example 47, [3-(2-chloro-4-methanesulfonylbenzyl)-4-difluoromethoxy-2-ethyl-8-fluoroquinolin-5-yloxy]acetic acid]	< 100
Cc1c(Cc2ccc(S(C)(=O)=O)cc2)c(OC(F)F)nc2c(F)ccc(OCC(=O)O)c12 [Example 48, [2-difluoromethoxy-8-fluoro-3-(4-methanesulfonylbenzyl)-4-methylquinolin-5-yloxy]acetic acid]	< 100
CCc1nc2c(F)ccc(OCC(=O)O)c2c(OC(F)F)c1Cc1ccc(Cl)cc1 [Example 49, [3-(4-chlorobenzyl)-4-difluoromethoxy-2-ethyl-8-fluoroquinolin-5-yloxy]acetic Acid]	< 100
CCc1nc2c(F)ccc(OCC(=O)O)c2c(OC(F)F)c1Cc1ccc(F)cc1 [Example 50, [4-difluoromethoxy-2-ethyl-8-fluoro-3-(4-fluorobenzyl)quinolin-5-yloxy]acetic Acid]	< 100

Now from value to molecule:

Ki [nM]	SMILES
< 100	Cc1nc2c(Cl)ccc(OCC(=O)O)c2c(OC(F)F)c1Cc1ccc(S(C)(=O)=O)cc1Cl [Example 35, [8-chloro-3-(2-chloro-4-methanesulfonylbenzyl)-4-difluoro-methoxy-2-methylquinolin-5-yloxy]acetic Acid]
< 100	Cc1c(Cc2ccc(S(C)(=O)=O)cc2)c(OC(F)F)nc2c(Cl)ccc(CC(=O)O)c12 [Example 36, [8-chloro-2-difluoromethoxy-3-(4-methanesulfonylbenzyl)-4-methylquinolin-5-yl]acetic Acid]
< 100	CCc1nc2c(Cl)ccc(OCC(=O)O)c2c(OC(F)F)c1Cc1ccc(F)cc1 [Example 37, [8-chloro-4-difluoromethoxy-2-ethyl-3-(4-fluorobenzyl)quinolin-5-yloxy]acetic Acid]
< 100	Cc1nc2c(Cl)ccc(OCC(=O)O)c2c(C)c1Cc1ccc(S(C)(=O)=O)cc1Cl [Example 38, [8-chloro-3-(2-chloro-4-methanesulfonylbenzyl)-2,4-dimethylquinolin-5-yloxy]acetic Acid]
< 100	CCc1nc2c(Cl)ccc(OCC(=O)O)c2c(OC(F)F)c1Cc1ccc(Cl)cc1 [Example 39, [8-chloro-3-(4-chlorobenzyl)-4-difluoromethoxy-2-ethylquinolin-5-yloxy]acetic Acid]
< 100	Cc1c(Cc2ccc(S(C)(=O)=O)cc2Cl)c(OC(F)F)nc2c(Cl)ccc(OCC(=O)O)c12 [Example 40, [8-chloro-3-(2-chloro-4-methanesulfonylbenzyl)-2-difluoromethoxy-4-methylquinolin-5-yloxy]acetic Acid]
